Test results: patent US8097640B2, “Prophylactic or therapeutic agent for diabetic maculopathy” (Sanwa Kagaku Kenkyusho Co., Ltd., priority 2004, dated 2012)
Values joined by “and” are separate entries in the source; they are usually repeats but may differ in a detail not shown here. Identical values can stand only once.

Key:
[1] = test system: edema in a retinal visual cell layer of diabetic rats; assay: Rat Test 2: edema in retinal visual cell layer after intraocular ischemia/reperfusion in STZ diabetic rats; type: in vivo
Experimental: The test was carried out in accordance with Efficacy Pharmacological Test Example 1. The set groups were the following 4 groups, and from 2 weeks after the treatment with STZ, 5% gum arabic solution or SNK-860 solution was orally administered once a day. • (1) Normal control group (10 rats): Given 5% gum arabic solution in a ratio of 5 ml/kg. • (2) Diabetic control group (9 rats): Given 5% gum arabic solution in a ratio of 5 ml/kg. • (3) Diabetic group given 2 mg/kg SNK-860 (10 rats): Given a suspension of SNK-860 (2 mg/5 ml) in 5% gum arabic solution in a ratio of 5 ml/kg. • (4) Diabetic group given 32 mg/kg SNK-860 (9 rats): Given a suspension of SNK-860 (32 mg/5 ml) in 5% gum arabic solution in a ratio of 5 ml/kg. Retinal ischemia produced by increasing the intraocular pressure was in accordance with Efficacy Pharmaceutical Test Example 1. Histological evaluation was also in accordance with Efficacy Pharmaceutical Test Example 1.

[2] = test system: patients with diabetic macular edema; assay: Clinical Results: macula lutea thickness (OCT), corrected visual acuity and safety in patients with diabetic macular edema; type: in vivo, humans
Experimental: Among patients with diabetic maculopathy, 10 patients with diabetic macular edema having a retinal thickening or a hard exudates in a posterior pole of the retina were subjects. SNK-860 was orally administered in a dose of 30 mg (2 tablets each containing 15 mg SNK-860) once a day before breakfast for 8 weeks. During this test period, simultaneous use of eparlestat, intravitreal injection and sub-Tenon injection of an adrenal cortical hormone, and photocoagulation and vitrectomy were prohibited. Basic therapy of diabetes mellitus was carried out so as to give good blood glucose control throughout the test period.
Evaluation was carried out in terms of the thickness of the macular central fovea (in the diameter range of 1 mm from the center of macula lutea) and the thickness at the center of the central fovea measured by optical coherence tomography (OCT, Carl Zeiss), as well as corrected visual acuity (Log MAR).
Log MAR (Log Minimum Angle of Resolution) is one kind of logarithmic visual acuity, which is visual acuity expressed in logarithmic minimum angle of resolution. Decimal visual acuity 1.0 used frequently in Japan is 0.0 in terms of Log MAR, and decimal visual acuity 0.1 is 1.0 in Log MAR. A log MAR visual acuity of 0.1 to 0.5 corresponds to a decimal visual acuity of 0.8 to 0.32.

[3] = test system: edema in a retinal visual cell layer of diabetic rats; assay: Rat Test 1: edema in retinal visual cell layer after intraocular ischemia/reperfusion in STZ diabetic rats; type: in vivo, Sprague Dawley rats; settings: 32 mg/kg oral once a day, 2 weeks plus 2 days reperfusion
Experimental: (§1) Diabetes mellitus was induced in male Sprague Dawley rats (8-week-old) weighing about 250 g by injecting streptozotocin (STZ manufactured by Sigma) intravenously into their tail at the dose of 60 mg/kg. One week after the treatment with STZ, serum glucose was measured, and rats with at least 300 mg/dl glucose were then used in the experiment as diabetic rats. The set groups were the following 3 groups, and after 2 weeks after the treatment with STZ, 5% gum arabic solution or SNK-860 solution was orally administered once a day. • (1) Normal control group (5 rats): Given 5% gum arabic solution in a ratio of 5 ml/kg. • (2) Diabetic control group (7 rats): Given 5% gum arabic solution in a ratio of 5 ml/kg. • (3) Diabetic group given 32 mg/kg SNK-860 (4 rats): Given a suspension of SNK-860 (32 mg/5 ml) in 5% gum arabic solution in a ratio of 5 ml/kg.
(§2) After administration for 2 weeks, intraocular ischemia was caused by the treatment described below. After the treatment was finished, the animals were maintained as usual for 2 days, and thereafter, the eyeballs were excised and histologically evaluated. Administration of the pharmacological agent was also conducted for a period (2 days) of reperfusion after ischemic treatment. […]
(§3) In each of the resulting retinal images, the thickness of the visual cell layer was measured. […]

[4] = test system: edema in the macular central fovea of diabetic monkeys; assay: Monkey Test: thickness and volume of macular central fovea (OCT) after ischemia/reperfusion in STZ diabetic monkeys; type: in vivo, Macaca fascicularis
Experimental: Diabetes mellitus was induced in male monkeys (Macaca fascicularis) (3-year-old) weighing about 2.1 to 2.4 kg by intravenously injecting STZ into their foreleg vein at the dose of 80 mg/kg. Two days after the treatment with STZ, blood glucose level was measured, and monkeys with at least 200 mg/dl glucose were then used in the experiment as diabetic monkeys. Insulin was administered subcutaneously once or twice per day into monkeys showing a blood glucose level of 300 mg/dl. The set groups were the following 3 groups, and from 2 weeks after the treatment with STZ, 5% gum arabic solution or SNK-860 solution was orally administered once a day. • (1) Normal control group (4 monkeys): Given 5% gum arabic solution in a ratio of 5 ml/kg. • (2) Diabetic control group (6 monkeys): Given 5% gum arabic solution in a ratio of 5 ml/kg. • (3) Diabetic group given 32 mg/kg SNK-860 (4 monkeys): Given a suspension of SNK-860 (32 mg/5 ml) in 5% gum arabic solution in a ratio of 5 ml/kg.
After administration for 2 weeks, intraocular ischemic treatment was carried out as described below, and after the treatment was finished, the animals were maintained as usual for 7 days. Before the ischemic treatment and 7 days after treatment, the thickness and volume of the macular central fovea (in the diameter range of 1 mm from the center of the macula lutea) were measured by an OCT scanner (Stratus OCT, Carl Zeiss). Administration of the pharmacological agent was also conducted for the period (7 days) of reperfusion after the ischemic treatment.
Retinal ischemia produced by increasing intraocular pressure was in accordance with Efficacy Pharmaceutical Test Example 1. However, the size of the needle used was 25 G×½ (Terumo). After a mydriatic (Mydrin P manufactured by Santen Pharmaceutical) was dropped onto the right eye, the monkey was anesthetized by intramuscularly administering ketaral (Sankyo Life Tech). Subsequently, a local anesthetic (Benoxyl eye drop 0.4%) was dropped onto the eye, and the monkey was prevented from blinking with an eyelid speculum. Anesthesia with ketaral was additionally carried out when necessary.
The thickness and volume of the macular central fovea were measured in the following manner. After a mydriatic (Mydrin P) was dropped onto the right eye of the monkey to dilate the pupil of the eye sufficiently, the monkey was anesthetized by intramuscularly administering Ketaral. Thereafter, the monkey was allowed to sit on a monkey chair and the head was fixed. […] On the basis of the resulting cross-sectional macular image, the thickness and volume of the macular central fovea were analyzed.

[5] = test system: nuclei in the inner retinal layer (ganglion cell layer) of diabetic rats; assay: Rat Test 1: loss of nuclei from ganglion cells after ischemia/reperfusion in STZ diabetic rats; type: in vivo, Sprague Dawley rats; settings: 32 mg/kg oral once a day, 4 rats
Experimental: as §1, §2, §3

[6] = 30 mg oral once a day for 8 weeks, 12 eyes, mean ± standard deviation
[7] = 30 mg oral once a day for 8 weeks, out of 12 eyes
[8] = baseline before administration, 12 eyes in 10 cases, mean ± standard deviation
[9] = 32 mg/kg oral once a day for 2 weeks, before ischemia
[10] = 32 mg/kg oral once a day, 7 days after ischemia

With `NC(=O)[C@@H]1C[C@]2(NC(=O)NC2=O)c2cc(F)ccc2O1` [SNK-860, (2S,4S)-6-Fluoro-2′,5′-dioxospiro[chroman-4,4′-imidazolidine]-2-carboxamide] the “inhibitory action on edema in visual cell layer” value ([1]; 2 mg/kg oral once a day) was “no inhibitory action on edema was observed”, the “inhibitory action on edema in visual cell layer” value ([1]; 32 mg/kg oral once a day) was “an evident inhibitory action on edema was observed” and the “Corrected visual acuity, Week 8” value [2, 6] was 0.24 Log MAR and 0.24 ± 0.20 Log MAR. The “Macula lutea thickness, Center of central fovea, Week 8” value [2, 6] was 298.7 μm and 298.7 ± 90.6 μm, the “Macula lutea thickness, Central fovea (diameter: 1 mm), Week 8” value [2, 6] was 300.4 μm and 300.4 ± 74.4 μm and the “Corrected visual acuity (eye number), 1-stage deterioration” value [2, 7] was 1 eyes. The “Corrected visual acuity (eye number), 1-stage improvement” value [2, 7] was 2 eyes, the “Corrected visual acuity (eye number), 2-stage improvement” value [2, 7] was 3 eyes and the “Corrected visual acuity (eye number), Unchanged” value [2, 7] was 6 eyes. The “side effects (safety)” value ([2]; 30 mg oral once a day for 8 weeks, patients) was “no particularly problematic side effects were recognized”, the “Macula lutea thickness, Center of central fovea, When initiated” value [2, 8] was 323.1 μm and 323.1 ± 111.4 μm and the “Macula lutea thickness, Central fovea (diameter: 1 mm), When initiated” value [2, 8] was 324.3 μm and 324.3 ± 87.7 μm. For the same compound, the “Corrected visual acuity, When initiated” value ([2]; baseline before administration, 12 eyes, mean ± standard deviation) was 0.30 Log MAR and 0.30 ± 0.22 Log MAR, the “edema / thickness of the visual cell layer (ischemic/re-perfused eye vs untreated eye)” value [3] was “no edema was observed” and the “formation of edema in macular central fovea” value ([4]; 32 mg/kg oral once a day) was “formation of edema or its change was not observed”. For the same compound, the “Average macula lutea thickness, Before ischemia” value [4, 9] was 157 ± 6 μm, the “Average macula lutea volume, Before ischemia” value [4, 9] was 0.123 ± 0.005 mm^3 and the “Average macula lutea thickness, 7 days after ischemia” value [4, 10] was 158 ± 2 μm. The “Average macula lutea volume, 7 days after ischemia” value [4, 10] was 0.124 ± 0.001 mm^3 and the “loss of nuclei from ganglion cells” value [5] was “loss of nuclei was not observed in all 4 rats”.
